For assay [1] the following is noted: five-year study; cited from earlier work.
For assay [2], the system named is people with lung diseases, especially COPD. The assay is described as follows: mortality from respiratory disease in people with lung diseases regularly self-administering tiotropium through the HANDIHALER inhalation device. The format is in vivo. The conditions noted are these: regular self-administration by inhalation via HANDIHALER; compared with a population with similar characteristics not treated with tiotropium. From the text:
This is evidence by the number of people with lung diseases, especially COPD, who die from respiratory disease in a given prolonged period of time when regularly self-administering tiotropium through the HANDIHALER® inhalation device; the comparison being a population with similar characteristics not treated with tiotropium.

This is an account of results in patent US20040102469A1, “Method for reducing the mortality rate” (Boehringer Ingelheim Pharma GmbH & Co. KG, priority 2002, published 2004).

In the case of `CC(C)[N+]1(C)[C@@H]2CC[C@H]1CC(OC(=O)C(CO)c1ccccc1)C2.[Br-]` (some centres unmarked) [ipratropium bromide], in assay [1], the influence on mortality entry is recorded as “did not show any influence on mortality”. As to `C[N+]1(C)C2C[C@H](OC(=O)C(O)(c3cccs3)c3cccs3)CC1[C@H]1OC21` (stereo partly drawn) [tiotropium, (1α,2β,4β,5α,7β)-7-[(hydroxydi-2-thienylacetyl)oxy]-9,9-dimethyl-3-oxa-9-azoniatricyclo[3.3.1.0^2,4]nonane bromide], the “reduction of the mortality rate (number of people who die from respiratory disease in a given prolonged period of time)” value in assay [2] is “suitable in the reduction of the mortality rate”.
